Source: US20240148747A1, “SMALL MOLECULE ACTIVATORS OF YAP TRANSCRIPTIONAL ACTIVITY FOR REGENERATIVE ORGAN REPAIR” (THE SCRIPPS RESEARCH INSTITUTE, priority 2021, published 2024)

Key:
[1] = test system: YAP; assay: TEAD-LUC activation assay (293A-TEAD-LUC reporter); type: cell-based; conditions: Homo sapiens, Table 3; read-out: TEAD-LUC activation assay EC50
[2] = Cytotoxicity in the TEAD-LUC activation assay; conditions: human

Row | Compound | EC50 [1] [µM] | IC50 [2] [µM]
1 | O=C(NCCc1ccc(F)c(Cl)c1)c1cc(-c2ccccc2)on1 [Compound 68] | > 20 | > 20
2 | O=C(NCCc1cccc(C(F)(F)F)c1)c1cc(-c2ccccc2)on1 [Compound 69] | > 20 | > 20
3 | O=C(NCCCn1ccnn1)c1cc(-c2ccc(F)cc2)on1 [Compound 70] | 5 | > 20
4 | O=C(NCCCn1ccnn1)c1cc(-c2ccccc2F)on1 [Compound 71] | 5 | > 20
5 | Cc1ccc(-c2cc(C(=O)NCCCn3ccnn3)no2)cc1 [Compound 72] | > 20 | > 20
6 | COc1ccc(-c2cc(C(=O)NCCCn3ccnn3)no2)cc1 [Compound 73] | > 20 | > 20
7 | O=C(NCCCn1ccnn1)c1cc(-c2cccc(F)c2)on1 [Compound 74] | 15 | > 20
8 | O=C(NCCCn1ccnn1)c1cc(-c2ccc(F)cc2F)on1 [Compound 75] | 10 | > 20
9 | O=C(NCCCn1ccnn1)c1cc(-c2ccc(C(F)(F)F)cc2)on1 [Compound 76] | > 20 | > 20
10 | O=C(NCCCn1ccnn1)c1cc(-c2ccc(OC(F)(F)F)cc2)on1 [Compound 77] | > 20 | > 20
11 | O=C(NCCCn1ccnn1)c1cc(-c2cccnc2)on1 [Compound 78] | > 20 | > 20
12 | O=C(NCCCn1ccnn1)c1cc(-c2ccc(F)c(F)c2)on1 [Compound 79] | > 20 | > 20
13 | O=C(NCCCn1ccnn1)c1cc(-c2cc(F)cc(F)c2)on1 [Compound 80] | > 20 | > 20
14 | O=C(NCCCn1ccnn1)c1cc(-c2ccc(Cl)cc2)on1 [Compound 81] | > 20 | > 20
15 | O=C(NCCCn1ccnn1)c1cc(-c2cncnc2)on1 [Compound 82] | > 20 | > 20
16 | O=C(NCCNc1ccccc1)c1cc(-c2ccccc2)on1 [Compound 83] | > 20 | > 20
17 | O=C(NCCCc1nccs1)c1n[nH]c2ccccc12 [Compound 84] | > 20 | > 20
18 | O=C(NCCCNc1ccccc1F)c1cc(-c2ccccc2)on1 [Compound 85] | > 20 | > 20
19 | O=C(NCCCc1nccs1)c1cc(-c2c(F)cc(F)cc2F)on1 [Compound 86] | > 20 | > 20
20 | O=C(NCCCc1nccs1)c1ncoc1-c1ccccc1 [Compound 87] | > 20 | > 20
21 | O=C(NCCCc1nccs1)c1nc2ccccc2o1 [Compound 88] | > 20 | > 20
22 | O=C(NCCCc1nccs1)c1cc(-c2ccc(F)cc2F)on1 [Compound 89] | 10 | > 20
23 | O=C(NCCc1nccs1)c1cc(-c2ccccc2)on1 [Compound 90] | 2.5 | > 20
24 | O=C(NCCCc1nccs1)c1cc(C(F)(F)F)ccn1 [Compound 91] | 15 | > 20
25 | O=C(NCCCc1nccs1)c1cncc(C(F)(F)F)c1 [Compound 92] | > 20 | > 20
26 | O=C(NCCn1cccc1)c1n[nH]c2ccccc12 [Compound 93] | > 20 | > 20
27 | O=C(NCCCc1nccs1)c1cc(-c2c(F)cccc2F)on1 [Compound 94] | 1 | > 20
28 | O=C(NCCCNc1cccc(F)c1)c1cc(-c2ccccc2)on1 [Compound 95] | 2.5 | > 20
29 | Cc1cncc(C(=O)NCCCc2nccs2)c1 [Compound 96] | > 20 | > 20
